{
  "source": "ChEMBL document CHEMBL5338751",
  "about": "“Discovery of the First-in-Class Intestinal Restricted FXR and FABP1 Dual Modulator ZLY28 for the Treatment of Nonalcoholic Fatty Liver Disease” (J Med Chem, 2023)",
  "key": {"Progesterone receptor": {"biological_target": "Progesterone receptor (Homo sapiens, UniProt P06401)", "sequence (P06401 whole entry, the tested form may be a part)": "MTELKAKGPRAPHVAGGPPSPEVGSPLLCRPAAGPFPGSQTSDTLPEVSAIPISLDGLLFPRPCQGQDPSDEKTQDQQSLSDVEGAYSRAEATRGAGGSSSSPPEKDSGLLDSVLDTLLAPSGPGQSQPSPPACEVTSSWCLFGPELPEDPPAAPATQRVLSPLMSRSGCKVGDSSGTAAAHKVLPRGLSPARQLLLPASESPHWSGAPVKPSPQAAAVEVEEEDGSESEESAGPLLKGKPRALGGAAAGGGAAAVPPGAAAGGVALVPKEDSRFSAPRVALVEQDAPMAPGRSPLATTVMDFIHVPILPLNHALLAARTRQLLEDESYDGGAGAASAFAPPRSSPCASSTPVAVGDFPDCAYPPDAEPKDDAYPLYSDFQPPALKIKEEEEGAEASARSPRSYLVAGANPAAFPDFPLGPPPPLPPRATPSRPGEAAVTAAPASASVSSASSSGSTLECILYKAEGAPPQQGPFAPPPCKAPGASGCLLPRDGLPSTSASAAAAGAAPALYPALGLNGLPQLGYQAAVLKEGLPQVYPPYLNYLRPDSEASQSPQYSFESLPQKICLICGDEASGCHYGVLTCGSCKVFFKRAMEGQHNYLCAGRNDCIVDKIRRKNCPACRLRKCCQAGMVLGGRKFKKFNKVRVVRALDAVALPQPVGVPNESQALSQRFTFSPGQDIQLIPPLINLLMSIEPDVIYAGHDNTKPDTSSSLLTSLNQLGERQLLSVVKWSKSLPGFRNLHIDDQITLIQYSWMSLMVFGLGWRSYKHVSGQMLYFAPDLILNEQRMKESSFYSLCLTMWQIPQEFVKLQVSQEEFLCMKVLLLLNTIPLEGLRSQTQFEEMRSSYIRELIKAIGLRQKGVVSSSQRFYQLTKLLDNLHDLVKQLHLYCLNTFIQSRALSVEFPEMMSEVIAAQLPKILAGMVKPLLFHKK", "experiment": "Activation of Gal-DBD and NHRLBD fused PR (unknown origin) transfected in African green monkey CV-1 cells by luciferase reporter assay", "assay_type": "cell-based"}, "[1]": {"biological_target": "Retinoic acid receptor gamma (Homo sapiens, UniProt P13631)", "sequence (P13631 whole entry, the tested form may be a part)": "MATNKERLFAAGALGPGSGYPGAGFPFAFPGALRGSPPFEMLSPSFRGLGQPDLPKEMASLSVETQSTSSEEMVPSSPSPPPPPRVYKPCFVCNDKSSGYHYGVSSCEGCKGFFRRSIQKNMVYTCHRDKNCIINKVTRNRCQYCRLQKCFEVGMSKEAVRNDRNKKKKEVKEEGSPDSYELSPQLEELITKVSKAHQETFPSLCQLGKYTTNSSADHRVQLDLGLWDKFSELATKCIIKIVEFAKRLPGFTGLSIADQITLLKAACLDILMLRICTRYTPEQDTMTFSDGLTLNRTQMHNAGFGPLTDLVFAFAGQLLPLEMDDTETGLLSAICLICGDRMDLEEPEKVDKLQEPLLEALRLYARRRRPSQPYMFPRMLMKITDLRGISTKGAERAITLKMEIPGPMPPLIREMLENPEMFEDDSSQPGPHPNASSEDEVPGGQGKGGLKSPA", "experiment": "Activation of Gal-DBD and NHRLBD fused RARgamma (unknown origin) transfected in African green monkey CV-1 cells by luciferase reporter assay", "assay_type": "cell-based"}, "Bile acid receptor": {"biological_target": "T1, Bile acid receptor (Homo sapiens, UniProt Q96RI1)", "T1 sequence (Q96RI1 whole entry)": "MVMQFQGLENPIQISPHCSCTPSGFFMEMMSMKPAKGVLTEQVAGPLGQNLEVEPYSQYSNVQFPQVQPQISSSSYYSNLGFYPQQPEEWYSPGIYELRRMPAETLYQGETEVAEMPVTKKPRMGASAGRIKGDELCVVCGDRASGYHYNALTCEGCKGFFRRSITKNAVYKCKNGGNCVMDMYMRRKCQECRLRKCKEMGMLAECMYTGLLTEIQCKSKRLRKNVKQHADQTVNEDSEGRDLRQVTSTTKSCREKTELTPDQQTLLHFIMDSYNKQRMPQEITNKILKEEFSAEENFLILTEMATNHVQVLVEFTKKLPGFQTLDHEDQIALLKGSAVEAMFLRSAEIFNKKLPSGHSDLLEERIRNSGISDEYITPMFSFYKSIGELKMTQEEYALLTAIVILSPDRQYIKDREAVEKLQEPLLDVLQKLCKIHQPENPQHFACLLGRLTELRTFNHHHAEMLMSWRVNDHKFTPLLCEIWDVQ", "experiment": "Agonist activity at FXR (unknown origin) expressed in human HepG2 cells co-transfected with human RXR assessed as luciferase activity incubated for 24 hrs by cell-based luciferase assay"}, "Mus musculus [2]": {"system": "Mus musculus", "experiment": "Anti-NASH activity in western diet and CCl4-induced nonalcoholic steatohepatitis C57BL/6 mouse assessed as reduction in MCP-1 level at 20 mg/kg, po administered for 12 weeks starting from week 8 and change in dose for every 5 days by ELISA", "assay_type": "functional, organism-based", "conditions": "time 4.0 weeks"}, "[3]": {"experiment": "Subacute toxicity in ICR mouse assessed as changes in serum TBA level at 500 mg/kg/day, po administered for 14 days", "assay_type": "organism-based", "conditions": "in vivo, 336 h, time 14 day"}, "Mus musculus [4]": {"system": "Mus musculus", "experiment": "Anti-NASH activity in western diet and CCl4-induced nonalcoholic steatohepatitis C57BL/6 mouse assessed as alleviation of hepatic steatosis at 20 mg/kg, po administered for 12 weeks starting from week 8 and change in dose for every 5 days", "assay_type": "functional, organism-based", "conditions": "time 4.0 weeks"}, "[5]": {"experiment": "Ratio of drug level in ileum to plasma in C57BL/6 mouse at 20 mg/kg, po administered for 5 days and measured after 1 hr post final dose by LC-MS analysis"}, "[6]": {"experiment": "Drug concentration in C57BL/6 mouse ileum at 20 mg/kg, po administered for 5 days and measured after 1 hr post final dose by LC-MS analysis", "assay_type": "ADME, organism-based", "conditions": "time 5 day, read-out: Ct"}, "Mus musculus [7]": {"system": "Mus musculus", "experiment": "Anti-NASH activity in western diet and CCl4-induced nonalcoholic steatohepatitis C57BL/6 mouse assessed as reduction in IL-1beta level at 20 mg/kg, po administered for 12 weeks starting from week 8 and change in dose for every 5 days by ELISA", "assay_type": "functional, organism-based", "conditions": "time 4.0 weeks"}, "[8]": {"biological_target": "Retinoic acid receptor alpha (Homo sapiens, UniProt P10276)", "sequence (P10276 whole entry, the tested form may be a part)": "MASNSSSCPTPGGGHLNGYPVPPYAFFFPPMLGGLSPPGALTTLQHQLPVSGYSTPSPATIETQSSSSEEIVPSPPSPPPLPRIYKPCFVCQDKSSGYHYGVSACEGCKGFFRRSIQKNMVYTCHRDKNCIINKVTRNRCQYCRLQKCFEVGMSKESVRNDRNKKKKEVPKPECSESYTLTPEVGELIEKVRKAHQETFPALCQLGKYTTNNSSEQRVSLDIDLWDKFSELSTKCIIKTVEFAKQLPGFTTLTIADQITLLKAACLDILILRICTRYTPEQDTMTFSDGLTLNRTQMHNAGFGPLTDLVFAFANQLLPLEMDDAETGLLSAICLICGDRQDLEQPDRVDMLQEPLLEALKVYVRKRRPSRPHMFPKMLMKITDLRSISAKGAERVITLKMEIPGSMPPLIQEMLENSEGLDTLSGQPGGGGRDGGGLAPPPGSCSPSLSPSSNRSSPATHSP", "experiment": "Activation of Gal-DBD and NHRLBD fused RARalpha (unknown origin) transfected in African green monkey CV-1 cells by luciferase reporter assay", "assay_type": "cell-based"}, "[9]": {"biological_target": "T2, Bile acid receptor (Mus musculus) (UniProt Q60641)", "T2 sequence (whole entry)": "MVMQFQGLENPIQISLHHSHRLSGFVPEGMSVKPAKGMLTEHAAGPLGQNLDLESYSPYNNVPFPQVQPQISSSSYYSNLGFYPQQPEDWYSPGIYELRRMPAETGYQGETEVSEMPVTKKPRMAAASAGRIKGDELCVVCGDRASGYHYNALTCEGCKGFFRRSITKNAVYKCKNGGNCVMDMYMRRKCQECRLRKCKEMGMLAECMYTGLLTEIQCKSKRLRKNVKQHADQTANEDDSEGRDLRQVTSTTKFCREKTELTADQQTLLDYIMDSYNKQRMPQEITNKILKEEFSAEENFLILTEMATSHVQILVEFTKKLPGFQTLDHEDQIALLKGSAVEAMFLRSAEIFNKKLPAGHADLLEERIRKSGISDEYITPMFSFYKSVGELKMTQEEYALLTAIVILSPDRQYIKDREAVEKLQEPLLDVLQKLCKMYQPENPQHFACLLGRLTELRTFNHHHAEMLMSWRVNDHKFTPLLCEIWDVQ", "experiment": "Activation of FXR in C57BL/6 mouse ileum assessed as upregulation of FGF15 gene expression in ileum at 20 mg/kg, po administered for 5 days and measured after 1 hr post final dose by RT-PCR analysis", "assay_type": "organism-based", "conditions": "filed as activator, time 5.0 day"}, "[10]": {"experiment": "Subacute toxicity in ICR mouse assessed as reduction in serum TBIL level at 500 mg/kg/day, po administered for 14 days", "assay_type": "organism-based", "conditions": "in vivo, 336 h, time 14 day"}, "[11]": {"experiment": "Subacute toxicity in ICR mouse assessed as changes in body weight at 500 mg/kg/day, po administered for 14 days", "assay_type": "organism-based", "conditions": "in vivo, 336 h, time 14 day"}, "Mus musculus [12]": {"system": "Mus musculus", "experiment": "Antioxidant activity in western diet and CCl4-induced nonalcoholic steatohepatitis C57BL/6 mouse model assessed as increase in glutathione peroxidase level at 20 mg/kg, po administered for 12 weeks starting from week 8 and change in dose for every 5 days", "assay_type": "functional, organism-based", "conditions": "time 4.0 weeks"}, "Mus musculus [13]": {"system": "Mus musculus", "experiment": "Anti-NASH activity in western diet and CCl4-induced nonalcoholic steatohepatitis C57BL/6 mouse assessed as downregulation of IL6 expression level at 20 mg/kg, po administered for 12 weeks starting from week 8 and change in dose for every 5 days by ELISA", "assay_type": "functional, organism-based", "conditions": "time 4.0 weeks"}, "[14]": {"biological_target": "T3, Peroxisome proliferator-activated receptor gamma (Homo sapiens, UniProt P37231)", "T3 sequence (P37231 whole entry)": "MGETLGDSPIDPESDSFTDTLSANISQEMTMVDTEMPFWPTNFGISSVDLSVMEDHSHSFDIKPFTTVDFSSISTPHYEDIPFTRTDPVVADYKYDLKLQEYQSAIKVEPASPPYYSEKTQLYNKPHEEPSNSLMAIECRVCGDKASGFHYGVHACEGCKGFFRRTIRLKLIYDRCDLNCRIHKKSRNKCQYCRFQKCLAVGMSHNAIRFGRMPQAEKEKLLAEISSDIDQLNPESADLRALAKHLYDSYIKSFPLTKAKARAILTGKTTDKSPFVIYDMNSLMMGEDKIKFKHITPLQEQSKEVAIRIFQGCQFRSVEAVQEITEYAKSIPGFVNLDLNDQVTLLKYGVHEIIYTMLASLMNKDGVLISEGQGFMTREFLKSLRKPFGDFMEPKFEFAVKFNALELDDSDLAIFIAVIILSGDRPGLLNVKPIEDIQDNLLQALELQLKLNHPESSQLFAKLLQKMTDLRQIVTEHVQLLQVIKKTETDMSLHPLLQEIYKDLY", "experiment": "Inhibition of PPARgamma (unknown origin) transfected in HEK293 cells incubated for 18 hrs in presence of rosiglitazone by dual luciferase reporter assay", "assay_type": "cell-based"}, "[15]": {"experiment": "Subacute toxicity in ICR mouse assessed as changes in organ to body weight ratio at 500 mg/kg/day, po administered for 14 days", "assay_type": "organism-based", "conditions": "in vivo, 336 h, time 14 day"}, "[16]": {"experiment": "Metabolic stability in rhesus monkey liver microsomes assessed as parent compound remaining incubated for 1 hr by LC-MS analysis", "assay_type": "ADME, Macaca mulatta, Microsome", "conditions": "read-out: Stability"}},
  "note": "Calls of active or inactive are those of the source. The rule behind the calls is not given here.",
  "data": [
    {"compound": "O=C(O)C1(c2cccc(-c3ccc(OCc4c(-c5c(Cl)cccc5Cl)noc4C4CC4)cc3)c2)CC1", "values": [
      {"measurement": "EC50", "setting": "Progesterone receptor", "value": "> 10", "unit": "µM"},
      {"measurement": "EC50", "setting": "[1]", "value": "> 10", "unit": "µM"},
      {"measurement": "EC50", "setting": "Bile acid receptor", "value": 0.491, "unit": "µM"},
      {"measurement": "Activity", "setting": "Mus musculus [2]", "value": "Active"},
      {"measurement": "Activity", "setting": "[3]", "value": "Non-Toxic"},
      {"measurement": "Activity", "setting": "Mus musculus [4]", "value": "Active"},
      {"measurement": "Kp at 120 h", "setting": "[5]", "value": 104},
      {"measurement": "concentration at 120 h", "setting": "[6]", "value": 996, "unit": "ng/g"},
      {"measurement": "Activity", "setting": "Mus musculus [7]", "value": "Active"},
      {"measurement": "EC50", "setting": "[8]", "value": "> 10", "unit": "µM"},
      {"measurement": "Activity", "setting": "[9]", "value": "Active"},
      {"measurement": "Activity", "setting": "[10]", "value": "Non-Toxic"},
      {"measurement": "Activity", "setting": "[11]", "value": "Non-Toxic"},
      {"measurement": "Activity", "setting": "Mus musculus [12]", "value": "Active"},
      {"measurement": "Activity", "setting": "Mus musculus [13]", "value": "Active"},
      {"measurement": "IC50", "setting": "[14]", "value": "> 10", "unit": "µM"},
      {"measurement": "Activity", "setting": "[15]", "value": "Non-Toxic"},
      {"measurement": "remaining at 1 h", "setting": "[16]", "value": 71, "unit": "%"}
    ]}
  ]
}
